Results from patent US5188955A, “Method of preserving arylacylamidase in aqueous solution” (GDS Technology, Inc., priority 1992, dated 1993).
Entries after “also recorded” stand apart in the source; their conditions may differ. Read-outs that look alike come from different tables or passages of the source.

Assays:
Type in all cases: biochemical
arylacylamidase = experiment: General findings on effect of stabilizers on arylacylamidase
[1] = tested on: arylacylamidase E.C. 3.5.1.13; experiment: Stability of aqueous arylacylamidase solution at 37° C. with or without o-cresol (Example 1); details: for Remaining enzyme activity: 37° C.
Method: (§1) Arylacylamidase enzyme was dissolved in water containing 50 mM borate buffer at various pH's at widely different concentrations of between 1 and 1500 U/L in the presence of between 1 and 12 mM o-cresol. The same solution of enzyme in buffer was prepared without o-cresol. Both sets of solutions were maintained at 37° C. for a period of two weeks. The enzyme activity was measured at the beginning of the period, as well as at certain times during the two week period. The enzyme activity was determined by a method which uses 50 mM Tris.HCl, pH 8.5, and 1 mM paranitroacetanilide as the enzyme substrate. In the presence of arylacylamidase, the p.nitroacetanilide is hydrolyzed to p-nitroaniline which absorbs at 405 nm. The kinetic assay was performed at 30° C. and 405 nm. One unit of enzyme activity is defined as 1 μ mole of p.nitroaniline formed using p-nitroacetanilide as a substrate at 30° C.

[2] = tested on: arylacylamidase E.C. 3.5.1.13; experiment: Stability of arylacylamidase dried on paper strips with or without o-cresol (Example 2); details: 37° C., two weeks
Method: as §1
Two arylacylamidase aqueous solutions of 100 U/L were prepared in water containing 50 mM borate buffer, pH 8.0, one in the presence of 10 mM o-cresol and one in the absence of o-cresol. Whatman 54 and Whatman 3MM paper strips (2"×12") were impregnated with these solutions and dried. The dried paper strips were stored at 37° C. for two weeks. […] The enzyme activity was measured using the assay described in Example 1.

[3] = tested on: arylacylamidase E.C. 3.5.1.13; details: 10 mM Tris-HCl pH 7.0
Method: as §1
An aqueous solutiOn of arylacylamidase, from about 100-200 U/mL, in 10 mM Tris-HCl buffer, which was maintained at pH 7.0, was lyophilized in the presence of various amounts of sodium benzoate and in the absence of sodium benzoate. After lyophilization, the enzyme samples were dissolved in deionized water to make an aqueous enzyme solution of 100 U/mL of water, and assayed for enzyme activity using the assay described in Example 1.

[4] = tested on: arylacylamidase E.C. 3.5.1.13; details: Arylacylamidase 21.6 U/mL with 1 mg/mL sodium benzoate, 10 mM Tris-HCl pH 7.0
Method: as §1
The arylacylamidase was dissolved in an aqueous buffer, such as in 10 mM Tris-HCl, pH 7.0, in the presence of 1 mg/ml sodium benzoate and in the absence of sodium benzoate.
The samples were maintained at 4° C., room temperature, and 37° C. The residual activity was determined using the enzyme assay described in Example 1.

[5] = tested on: arylacylamidase E.C. 3.5.1.13; details: 37° C., two weeks

## O=C(O)c1ccccc1 [benzoic acid]
arylacylamidase
  use as substrate / inhibition of arylacylamidase activity: neither compound is used by the enzyme as a substrate nor causes inhibition of the activity of arylacylamidase

## Cc1ccccc1O [o-cresol]
[1]; pH 8.0, 2.8 mM o-cresol, 0 HRS
  Remaining enzyme activity: 13.6 U/ML
[1]; pH 8.0, 2.8 mM o-cresol, 3 DAYS
  Remaining enzyme activity: 13.6 U/ML
[1]; pH 8.0, 2.8 mM o-cresol, 5 HRS
  Remaining enzyme activity: 13.5 U/ML
[1]; pH 8.0, 2.8 mM o-cresol, 7 DAYS
  Remaining enzyme activity: 12.3 U/ML
[1]; pH 8.0, 2.8 mM o-cresol, 14 DAYS
  Remaining enzyme activity: 11.8 U/ML
[1]; pH 8.0, 4.2 mM o-cresol, 0 HRS
  Remaining enzyme activity: 6.25 U/ML
[1]; pH 8.0, 4.2 mM o-cresol, 3 DAYS
  Remaining enzyme activity: 6.20 U/ML
[1]; pH 8.0, 4.2 mM o-cresol, 5 HRS
  Remaining enzyme activity: 6.16 U/ML
[1]; pH 8.0, 4.2 mM o-cresol, 7 DAYS
  Remaining enzyme activity: 5.66 U/ML
[1]; pH 8.0, 4.2 mM o-cresol, 14 DAYS
  Remaining enzyme activity: 5.36 U/ML
[1]; pH 8.0, 14 days at 37° C., 2.8 mM o-cresol
  activity of aqueous solution of arylacylamidase maintained: over 80%
[1]; pH 9.0, 2.2 mM o-cresol, 0 HRS
  Remaining enzyme activity: 13.6 U/ML
[1]; pH 9.0, 2.2 mM o-cresol, 3 DAYS
  Remaining enzyme activity: 11.2 U/ML
[1]; pH 9.0, 2.2 mM o-cresol, 5 HRS
  Remaining enzyme activity: 13.7 U/ML
[1]; pH 9.0, 2.2 mM o-cresol, 7 DAYS
  Remaining enzyme activity: 9.26 U/ML
[1]; pH 9.0, 2.2 mM o-cresol, 14 DAYS
  Remaining enzyme activity: 5.44 U/ML
[1]; pH 9.0, 3.75 mM o-cresol, 0 HRS
  Remaining enzyme activity: 6.15 U/ML
[1]; pH 9.0, 3.75 mM o-cresol, 3 DAYS
  Remaining enzyme activity: 5.03 U/ML
[1]; pH 9.0, 3.75 mM o-cresol, 5 HRS
  Remaining enzyme activity: 6.20 U/ML
[1]; pH 9.0, 3.75 mM o-cresol, 7 DAYS
  Remaining enzyme activity: 4.16 U/ML
[1]; pH 9.0, 3.75 mM o-cresol, 14 DAYS
  Remaining enzyme activity: 2.36 U/ML
[2]; Strips of Whatman 3 MM, 10 mM o-cresol
  Residual Activity (Recovery): 40%
[2]; Strips of Whatman 54, 10 mM o-cresol
  Residual Activity (Recovery): 70%
arylacylamidase
  use as substrate / inhibition of arylacylamidase activity: neither compound is used by the enzyme as a substrate nor causes inhibition of the activity of arylacylamidase
arylacylamidase; 10-100 mg/ml of ortho-cresol
  effect on stability of the enzyme: enhances the stability of the enzyme
arylacylamidase; higher concentrations of ortho-cresol, on the order of about 1%
  effect on the enzyme: inactivate the enzyme and make it unstable
arylacylamidase; o-cresol concentrations above about 0.5%
  effect on stability of arylacylamidase: specifically destabilizes arylacylamidase; also recorded: act to destabilize the arylacylamidase enzyme

## O=C(O)c1ccccc1 [sodium benzoate]
[3]; 1 mM sodium benzoate
  % Recovery After Lyophilization: 75%
[3]; 5 mM sodium benzoate
  % Recovery After Lyophilization: 95%
[3]; 10 mM sodium benzoate
  % Recovery After Lyophilization: 104%
[4]
  Remaining Activity at 4° C. (8 days): 80%
  Remaining Activity at 37° C. (1 day): 85%
  Remaining Activity at 37° C. (4 days): 30%
  Remaining Activity at Room Temp (8 days): 71%
[5]; Strips of Whatman 3 MM, 10 mM sodium benzoate
  Residual Activity (Recovery): 70%
[5]; Strips of Whatman 54, 10 mM sodium benzoate
  Residual Activity (Recovery): 85%
